Structures are written as SMILES.

One test has as its target DGKζ (Homo sapiens (Human), UniProt Q13574). Put plainly: Biochemical DGK IC50 assay (ADP-Glo, lipid micelle substrate), DGKζ. Particulars: full length DGKζ 0.5 nM, ATP 140 μM, DAG 80 μM. The method in brief:
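ADP-Glo luminescence measured ADP made in a 1 h room-temperature reaction. The enzyme was Sf9-expressed, purified full-length human DGKζ, and the substrate was DAG/PS micelles. Assay buffer held 50 mM HEPES, 10 mM MgCl2, 0.01 mM CaCl2, 0.1 mM Na3VO4 and 0.01% BSA. IC50 was derived from activity inhibition over a compound concentration series.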

The next test has as its target DGKα (Homo sapiens (Human), UniProt P23743). Put plainly: Biochemical DGK IC50 assay (ADP-Glo, lipid micelle substrate), DGKα. Also: full length DGKα 7.5 nM. The following applies: full length DGKα […], ATP 140 μM, DAG 80 μM. The method in brief:
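Luminescent ADP-Glo detection followed a 1 h room-temperature reaction of full-length DGKα on DAG/PS micelles, in HEPES buffer with 10 mM MgCl2, 0.01 mM CaCl2, 0.1 mM Na3VO4, BSA and Tween-20. IC50 derived from inhibition across increasing compound concentrations.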
A general note: In ADP-Glo the light output rises with the ADP produced.

Sequence of DGKζ (Q13574 other isoform, or with tags, fused parts or gaps): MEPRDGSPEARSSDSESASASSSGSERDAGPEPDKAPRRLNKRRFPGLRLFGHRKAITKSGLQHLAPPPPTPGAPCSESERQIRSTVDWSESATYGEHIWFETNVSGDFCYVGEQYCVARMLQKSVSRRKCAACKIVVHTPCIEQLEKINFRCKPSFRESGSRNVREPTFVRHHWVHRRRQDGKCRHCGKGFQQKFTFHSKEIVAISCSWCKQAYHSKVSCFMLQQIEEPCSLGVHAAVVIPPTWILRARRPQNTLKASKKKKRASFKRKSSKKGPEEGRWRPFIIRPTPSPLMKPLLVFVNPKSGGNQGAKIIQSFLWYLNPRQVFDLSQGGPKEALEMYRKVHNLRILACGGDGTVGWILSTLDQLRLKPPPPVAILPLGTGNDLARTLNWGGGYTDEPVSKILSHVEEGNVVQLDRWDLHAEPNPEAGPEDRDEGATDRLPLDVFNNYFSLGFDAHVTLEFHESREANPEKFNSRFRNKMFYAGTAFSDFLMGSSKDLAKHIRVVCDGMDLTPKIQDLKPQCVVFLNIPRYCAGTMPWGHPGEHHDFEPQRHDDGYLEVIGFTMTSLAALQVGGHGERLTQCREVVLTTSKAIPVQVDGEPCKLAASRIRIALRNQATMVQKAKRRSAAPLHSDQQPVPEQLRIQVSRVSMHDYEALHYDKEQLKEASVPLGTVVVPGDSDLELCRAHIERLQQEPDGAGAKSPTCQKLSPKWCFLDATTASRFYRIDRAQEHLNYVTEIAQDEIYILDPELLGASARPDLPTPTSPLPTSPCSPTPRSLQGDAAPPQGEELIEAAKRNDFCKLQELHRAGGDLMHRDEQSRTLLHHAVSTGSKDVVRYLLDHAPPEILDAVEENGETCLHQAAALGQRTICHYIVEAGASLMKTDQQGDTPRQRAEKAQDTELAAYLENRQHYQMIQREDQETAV
Sequence of DGKα (P23743 whole entry): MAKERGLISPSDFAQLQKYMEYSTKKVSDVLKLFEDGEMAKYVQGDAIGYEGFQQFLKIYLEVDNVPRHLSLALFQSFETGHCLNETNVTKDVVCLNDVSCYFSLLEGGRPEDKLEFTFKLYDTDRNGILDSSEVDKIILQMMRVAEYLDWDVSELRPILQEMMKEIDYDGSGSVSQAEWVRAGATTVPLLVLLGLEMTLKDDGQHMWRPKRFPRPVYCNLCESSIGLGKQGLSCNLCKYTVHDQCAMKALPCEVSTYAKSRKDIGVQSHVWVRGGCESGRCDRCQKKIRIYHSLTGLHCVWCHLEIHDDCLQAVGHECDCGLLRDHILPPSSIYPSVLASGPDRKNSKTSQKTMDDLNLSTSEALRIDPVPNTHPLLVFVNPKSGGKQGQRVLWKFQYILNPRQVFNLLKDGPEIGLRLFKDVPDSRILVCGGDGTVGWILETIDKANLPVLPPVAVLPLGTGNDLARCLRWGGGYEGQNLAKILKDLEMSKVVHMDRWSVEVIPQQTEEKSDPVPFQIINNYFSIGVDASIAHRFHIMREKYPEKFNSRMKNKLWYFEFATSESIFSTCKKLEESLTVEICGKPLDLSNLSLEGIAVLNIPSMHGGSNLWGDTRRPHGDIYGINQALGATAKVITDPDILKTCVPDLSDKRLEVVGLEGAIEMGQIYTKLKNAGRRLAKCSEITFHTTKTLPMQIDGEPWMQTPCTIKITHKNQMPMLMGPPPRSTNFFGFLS

What is called IC50 is the point on the concentration scale where inhibition reaches its midpoint. A higher IC50 goes with lower potency. `CC[C@H]1CN(C(C)c2ccn3nc(C)c(F)c3n2)[C@H](CC)CN1c1nc(=O)n(C)c2cn(CC#N)nc12` (single isomer, unassigned) [Compound A170a]: the IC50 against DGKζ and against DGKα was greater than 10000 nM throughout.

Take `CC[C@H]1CN(C(C)c2cnc3c(c2)CCO3)[C@H](CC)CN1c1cc(=O)n(C)c2cn(CC#N)nc12` (stereo partly drawn) [Compound A74, 2-(7-((2S,5R)-4-(1-(2,3-dihydrofuro[2,3-b]pyridin-5-yl)ethyl)-2,5-diethylpiperazin-1-yl)-4-methyl-5-oxo-4,5-dihydro-2H-pyrazolo[4,3-b]pyridin-2-yl)acetonitrile]: the IC50 against DGKζ was 475 nM; at DGKα, 5820 nM.

Turning to `CC[C@H]1CN(C(C)c2ccc3nc(COC)sc3c2)[C@H](CC)CN1c1cc(=O)n(C)c2cn(CC#N)nc12` (single isomer, unassigned) [Compound A145a], the IC50 at DGKζ amounted to 47 nM; at DGKα it was 545 nM.

Turning to `CC[C@H]1CN(C(C)c2ccc(C(=O)N(C)CCOC)cc2)[C@H](CC)CN1c1cc(=O)n(C)c2cn(CC#N)nc12` (single isomer, unassigned) [Compound A195a], the IC50 is 1410 nM against DGKζ and 774 nM at DGKα.

In the case of `CC[C@H]1CN(C(C)c2ccn3nc(F)cc3n2)[C@H](CC)CN1c1cc(=O)n(C)c2cn(CC#N)nc12` (single isomer, unassigned) [Compound A158b], the IC50 at DGKζ came out at 91 nM; against DGKα, 21 nM.

On to `CC[C@H]1CN(C(C)c2ccc(OC)cc2F)[C@H](CC)CN1c1cc(=O)n(C)c2cn(CC#N)nc12` (stereo partly drawn) [Compound A12, 2-(7-((2S,5R)-2,5-diethyl-4-(1-(2-fluoro-4-methoxyphenyl)ethyl)piperazin-1-yl)-4-methyl-5-oxo-4,5-dihydro-2H-pyrazolo[4,3-b]pyridin-2-yl)acetonitrile], for which the IC50 at DGKζ came to 92 nM; against DGKα, 440 nM.

Consider `CC[C@@H]1CN(c2cc(=O)n(C)c3cn(CC#N)nc23)[C@@H](C)CN1C(C)c1ccn2nc(C)cc2n1` (single isomer, unassigned) [Compound A172a], for which the IC50 was 108 nM against DGKζ and 158 nM at DGKα.

For `CC[C@H]1CN(C(C)c2ccc(OC3COC3)c(F)c2)[C@H](CC)CN1c1cc(=O)n(C)c2cn(CC#N)nc12` (single isomer, unassigned) [Compound A23b], the IC50 was determined as 534 nM at DGKζ and 138 nM against DGKα.

`CC[C@@H]1CN(c2cc(=O)n(C)c3cn(CC#N)nc23)[C@@H](C)CN1[C@H](C)c1ccc2ncoc2c1` (single isomer, unassigned) [Compound A85b]: the IC50 at DGKζ amounted to 3500 nM; against DGKα it was 2040 nM.

`CC[C@H]1CN(C(C)c2ncc(C)cc2C)[C@H](CC)CN1c1cc(=O)n(C)c2cn(CC#N)nc12` (stereo partly drawn) [Compound A53, 2-(7-((2S,5R)-4-(1-(3,5-dimethylpyridin-2-yl)ethyl)-2,5-diethylpiperazin-1-yl)-4-methyl-5-oxo-4,5-dihydro-2H-pyrazolo[4,3-b]pyridin-2-yl)acetonitrile]: the IC50 against DGKζ was 331 nM; at DGKα, 4490 nM.

For the molecule `CC[C@@H]1CN(c2cc(=O)n(C)c3cn(CC#N)nc23)[C@@H](C)CN1C(C)c1ccc2ncsc2c1` (single isomer, unassigned) [Compound A92a], the figures for the IC50 on DGKζ and against DGKα were 9.1 nM and 108 nM, respectively.

For `CC[C@H]1CN(C(C)c2ccc3nc(COC)sc3n2)[C@H](CC)CN1c1cc(=O)n(C)c2cn(CC#N)nc12` (single isomer, unassigned) [Compound A143a], the IC50 against DGKζ is 2150 nM; at DGKα, 3180 nM.

Consider `CC[C@H]1CN(C(C)c2ccc3nscc3c2)[C@H](CC)CN1c1cc(=O)n(C)c2cn(CC#N)nc12` (stereo partly drawn) [Compound A88, 2-(7-((2S,5R)-4-(1-(benzo[c]isothiazol-5-yl)ethyl)-2,5-diethylpiperazin-1-yl)-4-methyl-5-oxo-4,5-dihydro-2H-pyrazolo[4,3-b]pyridin-2-yl)acetonitrile], for which the IC50 amounted to 10 nM on DGKζ and 51 nM against DGKα.

Regarding `CC[C@H]1CN(C(C)c2ccc(C(=O)N3CC(OC)C3)cc2)[C@H](CC)CN1c1cc(=O)n(C)c2cn(CC#N)nc12` (single isomer, unassigned) [Compound A1b], the IC50 against DGKζ is greater than 10000 nM; against DGKα, 734 nM.

For the molecule `CC[C@H]1CN(C(C)c2ccc3nc(OCCF)sc3n2)[C@H](CC)CN1c1cc(=O)n(C)c2cn(CC#N)nc12` (single isomer, unassigned) [Compound A147a], the values for the IC50 at DGKζ and at DGKα were 152 nM and 180 nM, respectively.

Turning to `CC#CCn1cc2c(n1)c(N1C[C@@H](CC)N(C(C)c3ccc4ncsc4c3)C[C@@H]1C)cc(=O)n2C` (single isomer, unassigned) [Compound A112a], the results for the IC50 against DGKζ and against DGKα were 78 nM and 65 nM, respectively.

As to `CC[C@H]1CN(C(C)c2ccc3nc(OC4CC4)sc3n2)[C@H](CC)CN1c1cc(=O)n(C)c2cn(CC#N)nc12` (single isomer, unassigned) [Compound A146b], the IC50 on DGKζ was 104 nM; at DGKα, 205 nM.

Consider `CC[C@H]1CN(C(C)c2ccc3nc(COC)sc3c2)[C@H](CC)CN1c1cc(=O)n(C)c2cn(CC#N)nc12` (single isomer, unassigned) [Compound A145b], for which the IC50 was found to be 939 nM on DGKζ and 3350 nM against DGKα.

For the molecule `CC[C@H]1CN(C(C)c2cc3scnc3cc2F)[C@H](CC)CN1c1cc(=O)n(C)c2cn(CC#N)nc12` (single isomer, unassigned) [Compound A103a], the IC50 turned out to be 14 nM at DGKζ and 92 nM against DGKα.

Turning to `CC[C@H]1CN(C(C)c2ccc(C3CC3)nc2)[C@H](CC)CN1c1c(F)c(=O)n(C)c2cn(CC#N)nc12` (single isomer, unassigned) [Compound A48a], the figures for the IC50 at DGKζ and on DGKα were 59 nM and 240 nM, respectively.

For the molecule `CC[C@H]1CN(C(C)c2ccn3nccc3n2)[C@H](CC)CN1c1cc(=O)n(C)c2cn(CC#N)nc12` (single isomer, unassigned) [Compound A154b], the IC50 on DGKζ is 55 nM; on DGKα, 12 nM.

As to `CC[C@H]1CN(C(C)c2cc3sc(C)nc3cc2F)[C@H](CC)CN1c1nc(=O)n(C)c2cn(CC#N)nc12` (single isomer, unassigned) [Compound A128b], the IC50 against DGKζ was determined as 694 nM; at DGKα, 4480 nM.

Consider `CC[C@H]1CN(C(C)c2ccn3nc(C)cc3n2)[C@H](CC)CN1c1cc(=O)n(C)c2cn(CC#N)nc12` (single isomer, unassigned) [Compound A152a], for which the figures for the IC50 on DGKζ and at DGKα were 3090 nM and 1910 nM, respectively.

For `CC[C@H]1CN(C(C)c2ccc3ncoc3c2)[C@H](CC)CN1c1cc(=O)n(C)c2cn(CC#N)nc12` (single isomer, unassigned) [Compound A84a], the IC50 came out at 43 nM on DGKζ and 68 nM against DGKα.

Consider `CC[C@H]1CN(C(C)c2ccc3nsnc3c2)[C@H](CC)CN1c1cc(=O)n(C)c2cn(CC#N)nc12` (single isomer, unassigned) [Compound A106a], for which the values for the IC50 at DGKζ and against DGKα were 9 nM and 65 nM, respectively.

Consider `CC[C@H]1CN(C(C)c2ccc3c(C)cnn3c2)[C@H](CC)CN1c1cc(=O)n(C)c2cn(CC#N)nc12` (single isomer, unassigned) [Compound A204b], for which the IC50 turned out to be 971 nM on DGKζ and 7300 nM against DGKα.

With `CC[C@H]1CN(C(C)c2ccc(COC3CCOC3)cc2)[C@H](CC)CN1c1cc(=O)n(C)c2cn(CC#N)nc12` (stereo partly drawn) [Compound A17, 2-(7-((2S,5R)-2,5-diethyl-4-(1-(4-(((tetrahydrofuran-3-yl)oxy)methyl)phenyl)ethyl)piperazin-1-yl)-4-methyl-5-oxo-4,5-dihydro-2H-pyrazolo[4,3-b]pyridin-2-yl)acetonitrile], the IC50 came to 315 nM against DGKζ and 343 nM against DGKα.

For `CC[C@H]1CN(C(C)c2ccc3c(c2)OCO3)[C@H](CC)CN1c1cc(=O)n(C)c2cn(CC#N)nc12` (single isomer, unassigned) [Compound A68b], the IC50 at DGKζ is 2550 nM; on DGKα it was 1390 nM.

Consider `CC[C@H]1CN(C(C)c2ccn3ncc(F)c3n2)[C@H](CC)CN1c1nc(=O)n(C)c2cn(CC#N)nc12` (single isomer, unassigned) [Compound A164b], for which the IC50 on DGKζ was found to be 88 nM; against DGKα, 134 nM.

For `CC[C@H]1CN(C(C)c2ccn3ccnc3c2)[C@H](CC)CN1c1cc(=O)n(C)c2cn(CC#N)nc12` (single isomer, unassigned) [Compound A80a], the IC50 on DGKζ was 939 nM; against DGKα it was 140 nM.

Turning to `CCc1nc2cc(C(C)N3C[C@H](CC)N(c4cc(=O)n(C)c5cn(CC#N)nc45)C[C@H]3CC)ccc2s1` (stereo partly drawn) [Compound A109, 2-(7-((2S,5R)-2,5-diethyl-4-(1-(2-ethylbenzo[d]thiazol-5-yl)ethyl)piperazin-1-yl)-4-methyl-5-oxo-4,5-dihydro-2H-pyrazolo[4,3-b]pyridin-2-y)acetonitrile], the IC50 against DGKζ is 18 nM; against DGKα, 2430 nM.

For the molecule `CC[C@H]1CN(C(C)c2ccc3nccn3c2)[C@H](CC)CN1c1cc(=O)n(C)c2cn(CC#N)nc12` (single isomer, unassigned) [Compound A82a], the concentration for half-maximal inhibition (IC50) was 486 nM against DGKζ and 109 nM against DGKα.

`CC[C@H]1CN(C(C)c2ccc(OC3CCOC3)cc2F)[C@H](CC)CN1c1cc(=O)n(C)c2cn(CC#N)nc12` (stereo partly drawn) [Compound A13, 2-(7-((2S,5R)-2,5-diethyl-4-(1-(2-fluoro-4-((tetrahydrofuran-3-yl)oxy)phenyl)ethyl)piperazin-1-yl)-4-methyl-5-oxo-4,5-dihydro-2H-pyrazolo[4,3-b]pyridin-2-yl)acetonitrile]: the IC50 on DGKζ came to 323 nM; against DGKα it was 838 nM.

These data come from patent publication US20250346597A1, “CONDENSED HETEROCYCLIC COMPOUNDS AS INHIBITOR OF DIACYLGLYCEROL KINASES” (BEONE MEDICINES I GMBH, priority 2023, published 2025).
